Reference: patent publication US10947218B2, “Aminopyridine derivatives and their use as selective ALK-2 inhibitors” (priority 2016, dated 2021)
Structures can show the parent of a compound that is named as a salt.

Tests used:
[1] = Dynamic Vapor Sorption (physical stability versus relative humidity); format: physicochemical
Protocol: The peaks found are: Wave number (in cm^−1): 3241(m), 2951(w), 2867(w), 1669(m), 1538(m), 1456(w), 1355(m), 1249(m), 1087(w), 979(w), 885(w), 797(w). […] Then 3 mL of heptane were added into the solution. White solid precipitated out. The solid was separated by suction filtration and dried at 40° C. under vacuum overnight. 380 mg of a fumarate salt amorphous form of 2-amino-N-(4-hydroxybicyclo[2.2.2]octan-1-yl)-5-(4-((1R,5S)-3-(tetrahydro-2H-pyran-4-yl)-3-azabicyclo[3.1.0]hexan-1-yl)phenyl)nicotinamide was obtained as a white solid. […] Resulting mixture was stirred at 50° C. for 0.5 hour and a clear solution was obtained. To the solution was slowly added a solution of 695.2 mg in 10 mL of acetone:water (95:5, v/v). Resulting suspension was gradually cooled to 25° C. and was kept stirring for 24 hours. Add 1.5 mL water to the suspension. The mixture was kept stirring at 50° C. for 12 hours and slowly cooled to 25° C. Solid was separated by suction filtration, washed with 10 mL acetone:water (90:10, v/v) once, and exposed to an ambient environment (about 25° C., 50% RH) overnight. […]

[2] = Solubility in aqueous media (25° C., 24 h equilibration); format: physicochemical; settings: pH 9.0 borate buffer/8.6, target concentration 2 mg/mL

Compound | physical stability over relative humidity (DVS) ([1]; 25° C., FIG. 15) | physical stability over relative humidity (DVS) ([1]; 40° C., FIG. 16) | solubility [2]
Nc1ncc(-c2ccc([C@@]34C[C@@H]3CN(C3CCOCC3)C4)cc2)cc1C(=O)NC12CCC(O)(CC1)CC2 [Fumarate salt Modification HA, 2-amino-N-(4-hydroxybicyclo[2.2.2]octan-1-yl)-5-(4-((1R,5S)-3-(tetrahydro-2H-pyran-4-yl)-3-azabicyclo[3.1.0]hexan-1-yl)phenyl)nicotinamide] | physically stable at least from 0% to 90% RH | physically stable at least from 10% to 90% RH | 
Nc1ncc(-c2ccc([C@@]34C[C@@H]3CN(C3CCOCC3)C4)cc2)cc1C(=O)NC12CCC(O)(CC1)CC2 [Free form Modification HA, 2-amino-N-(4-hydroxybicyclo[2.2.2]octan-1-yl)-5-(4-((1R,5S)-3-(tetrahydro-2H-pyran-4-yl)-3-azabicyclo[3.1.0]hexan-1-yl)phenyl)nicotinamide] |  |  | <LOQ
